Series [1] is described as follows: pKa of the acid/base indicator dye. The series is classed as physicochemical.
A further series has as its system β-galactosidase. In words: Substrate evaluation: hydrolysis by β-galactosidase in solution. It counts as biochemical.
[2] abbreviates: 50 mM phosphate buffer pH 7.4 (containing no magnesium).

As for `O=c1ccc2nc3ccc(O)cc3ccc-2c1` [Compound 1, 8-Hydroxy-2H-dibenz[b,f]azepin-2-one], the pKa in series [1] amounted to 6.34.
On the same count and under the same terms, the figure for `O=C1C=CC2=Nc3ccc(O)cc3CCC2=C1` [Compound 2, 8-Hydroxy-10,11-dihydro-2H-dibenz[b,f]azepin-2-one] is 6.95.
With `O=c1ccc2nc3ccc(O[C@@H]4O[C@H](CO)[C@H](O)[C@H](O)[C@H]4O)cc3ccc-2c1` [Compound 3, 8-(β-D-galactopyranosyloxy)-2H-dibenz[b,f]azepin-2-one], the “substrate for β-galactosidase (in words)” value with β-galactosidase was “substrate for β-galactosidase”.
Regarding `O=C1C=CC2=Nc3ccc(O[C@@H]4O[C@H](CO)[C@H](O)[C@H](O)[C@H]4O)cc3CCC2=C1` [Compound 4, 8-(β-D-galactopyranosyloxy)-10,11-dihydro-2H-dibenz [b,f]azepin-2-one], the “substrate for β-galactosidase (in words)” value in the series with β-galactosidase is listed as “substrate for β-galactosidase”. Besides, in the series with β-galactosidase (setting [2]), the Km was found to be 96 µM and the “rate (Kcat) of hydrolysis to give 2” value is on record as 7.07×10^3 mol. min^-1 /mol. active site.

The values above are taken from patent publication US5208326A, “8-hydroxy-2H-dibenz(b,f)azepin-2-one dyes” (Miles Inc., priority 1991, dated 1993).
